Measurements as given in publication PMC6403271, “Characterization, mechanism of action and optimization of activity of a novel peptide-peptoid hybrid against bacterial pathogens involved in canine skin infections” (Scientific Reports, 2019).
Values after ≈ are worked out from the molar mass of the structure shown. Read-outs that look alike come from different tables or passages of the source. Marks after values point to notes of the source that are not given here. Square brackets hold non-standard residues; d marks the D form. Peptide text beside a SMILES is read from it. N(1-naphthylmethyl)Gly = O=C(O)CNCc1cccc2ccccc12; 2Nal = N[C@@H](Cc1ccc2ccccc2c1)C(=O)O; d1Nal = N[C@H](Cc1cccc2ccccc12)C(=O)O; N(4-MeBn)Gly = Cc1ccc(CNCC(=O)O)cc1; dNle = CCCC[C@@H](N)C(=O)O; Nle = CCCC[C@H](N)C(=O)O; NBuGly = CCCCNCC(=O)O

Columns and labels:
MRSP C22963 = format: cell-based, Staphylococcus pseudintermedius
Outline: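 Broth microdilution per CLSI M31-A3 on canine clinical isolates plus reference MRSP C22963, MSSA and P. aeruginosa 26314; 5 × 10^5 CFU/mL in MHB II with two-fold dilutions from 1 to 64 µg/ml. MIC = lowest concentration without visible growth after 18 hours at 37 °C; triplicates on two days.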

[1] = system: Acinetobacter baumannii, 27065; format: cell-based; conditions: 27065, 18 h
Description: (§1) For antibacterial spectrum the following strains were used: Corynebacterium auriscanis, 31551, (54 C6, dog, ear, 2013); Enterococcus faecalis, 27404, (17 C7, dog, wound, 2011); Enterococcus faecium, 30951, (24 C1, dog, ear, 2013); Streptococcus canis, 26740-1, (14 H1, dog, ear, 2010); Staphylococcus aureus, 27266, (16 G9, dog, skin, 2010); Staphylococcus aureus, 27266, (16 G9, dog, skin, 2010); Staphylococcus pseudintermedius 22963, (3 B9, dog, 2007). Acinetobacter baumannii, 27065, (16 D1, dog, wound, 2010); E. coli, 30235, 23 A6, dog, wound, 2012; Klebsiella pneumoniae, 26233, (11 H5, dog, wound, 2010); Pasteurella canis, 31096, (24 C8, dog, skin, 2013); Proteus mirabilis, 25178, (9 A4, dog, ear, 2009); Pseudomonas aeruginosa 26314, 12 C5, dog, urine, 2010). MIC determination was performed by broth microdilution according to the Clinical and Laboratory Standard Institute (CLSI, […]-A3, 2008)[62]. In brief, each bacterial strain was diluted to concentration of 5 × 10^5 CFU/mL in Mueller Hinton broth II (MHB II) media (Oxoid) and added to a two-fold serial dilution of peptides and peptide-peptoid hybrids concentrations ranging from 1 to 64 μg/ml in 96-well plates (Nunc Internationals, Rochester, NY). The MICs were determined as a lowest concentration showing no visible growth after incubation for 18 hours at 37 °C. Experiments were performed in triplicates on two different days.

[2] = system: Corynebacterium auriscanis, 31551; format: cell-based; conditions: 18 h
Description: as §1

[3] = system: Enterococcus faecalis, 27404; format: cell-based; conditions: 27404, 18 h
Description: as §1

[4] = system: Enterococcus faecium, 30951; format: cell-based; conditions: 30951, 18 h
Description: as §1

[5] = system: Klebsiella pneumoniae, 26233; format: cell-based; conditions: 26233, 18 h
Description: as §1

Pasteurella canis, 31096 = format: cell-based
Description: as §1

Proteus mirabilis, 25178 = format: cell-based; conditions: 25178, 18 h
Description: as §1

[6] = system: Streptococcus canis, 26740-1; format: cell-based; conditions: 18 h
Description: as §1

S. aureus strains = format: cell-based, Staphylococcus aureus; conditions: 18 h
Description: as §1, with “2010). […] 25054, (8 G6, dog, wound, 2009); 27266, (16 G9, dog, skin, 2010 also used in exp above); 28264,(20 B1, dog, wound, 2011); 30935, (24 B9, dog, joint, 2013); 36968, (61 A9, dog, wound, 2016); 37595,(65 D2, dog, joint, 2016); 37708-2, (66 C6, dog, skin, 2016); 38200, (68 E9, dog, skin, 2016); 38565-1, (70 A5, dog, skin, 2017); 38841, (70 G5, dog, urine, 2017).” for “2010).”

[7] = system: S. pseudintermedius strains; format: cell-based, Staphylococcus pseudintermedius; conditions: for MIC S. pseudintermedius strain 26071 / MIC S. pseudintermedius strain 26092-2 / MIC S. pseudintermedius strain 26959 / MIC S. pseudintermedius strain 27364 / MIC S. pseudintermedius strain 27382 / MIC S. pseudintermedius strain 31524 / MIC S. pseudintermedius strain 33228 / MIC S. pseudintermedius strain 35890 / MIC S. pseudintermedius strain 37526-1 / MIC S. pseudintermedius strain 37535-1 / MIC S. pseudintermedius strain 38637: 18 h
Experimental: Activity of B1 was tested on 50P. aeruginosa isolates and 57S. pseudintermedius isolates (including 7 MRSP) that had been isolated in the diagnostic laboratory Sund Vet Diagnostik (University of Copenhagen) from various infections in dogs between 2009 and 2011. Representative MRSP (C22963), MSSA, and P. aeruginosa (26314) were used for testing the first set of B1 analogues.
For testing the selectivity of 23 and 26 against clinical isolates of S. pseudintermedius vs S. aureus the following strains were used.
MIC determination was performed by broth microdilution according to the Clinical and Laboratory Standard Institute (CLSI, M31-A3, 2008)[62]. In brief, each bacterial strain was diluted to concentration of 5 × 10^5 CFU/mL in Mueller Hinton broth II (MHB II) media (Oxoid) and added to a two-fold serial dilution of peptides and peptide-peptoid hybrids concentrations ranging from 1 to 64 µg/ml in 96-well plates (Nunc Internationals, Rochester, NY). The MICs were determined as a lowest concentration showing no visible growth after incubation for 18 hours at 37 °C. Experiments were performed in triplicates on two different days.

Compound | MIC Staphylococcus pseudintermedius (MRSP C22963; 18 h) | Minimum Inhibitory Concentration MRSP C22963 (MRSP C22963; Table 1) | MIC Acinetobacter baumannii [1] | MIC Corynebacterium auriscanis [2] | MIC Enterococcus faecalis [3] | MIC Enterococcus faecium [4] | MIC Klebsiella pneumoniae [5] | MIC Proteus mirabilis (Proteus mirabilis, 25178) | MIC Streptococcus canis [6] | MIC Staphylococcus aureus (S. aureus strains) | MIC Pasteurella canis (Pasteurella canis, 31096; 31096, 24 C8, dog, skin, 2013) | MIC S. aureus strain 25054 (S. aureus strains) | MIC S. aureus strain 27266 (S. aureus strains) | MIC S. aureus strain 28264 (S. aureus strains) | MIC S. aureus strain 30935 (S. aureus strains) | MIC S. aureus strain 36968 (S. aureus strains) | MIC S. aureus strain 37595 (S. aureus strains) | MIC S. aureus strain 37708-2 (S. aureus strains) | MIC S. aureus strain 38200 (S. aureus strains) | MIC S. aureus strain 38565-1 (S. aureus strains) | also measured
CCCCN(CC(=O)N[C@@H](CCCCN)C(=O)N(CC(=O)N(CC(=O)N(CC(N)=O)Cc1cccc2ccccc12)Cc1ccc(C)cc1)Cc1cccc2ccccc12)C(=O)[C@H](CCCCN)NC(=O)[C@@H](N)CCCCN [B1, Lys-Lys-(NBu)Gly-Lys-(N1-Nal)Gly-(N4-MeBn)Gly-(N1-Nal)Gly] (H-KK[NBuGly]K[N(1-naphthylmethyl)Gly][N(4-MeBn)Gly][N(1-naphthylmethyl)Gly]-NH2) | 2 µg/mL (≈ 1.87 µM) | 2–4^b µg/ml | 64 µg/mL (≈ 59.8 µM) | 4 µg/mL (≈ 3.74 µM) | 64 µg/mL (≈ 59.8 µM) | 16 µg/mL (≈ 14.9 µM) | >64 µg/mL | >64 µg/mL | 4 µg/mL (≈ 3.74 µM) | 8 µg/mL (≈ 7.47 µM) |  |  |  |  |  |  |  |  |  |  | MIC Pasteurella canis (Pasteurella canis, 31096; 18 h): 8 µg/mL (≈ 7.47 µM); MICs for the three S. aureus isolates tested (S. aureus strains): 4 to 8 µg/mL; MICs against a panel of 57 S. pseudintermedius isolates from canine infections ([7]; irrespective of methicillin resistance (7 MRSP, 50 MSSP)): 2 to 4 µg/mL
CCCC[C@@H](NC(=O)[C@H](CCCCN)NC(=O)[C@H](CCCCN)NC(=O)[C@@H](N)CCCCN)C(=O)N[C@H](Cc1cccc2ccccc12)C(=O)N[C@H](Cc1ccccc1)C(=O)N[C@H](Cc1cccc2ccccc12)C(N)=O [Compound 26, Lys-Lys-Lys-nle-(1-Nal)ala-phe-(1-Nal)ala] (H-KKK[dNle][d1Nal][dF][d1Nal]-NH2; N-terminus assumed) | 4 µg/mL (≈ 3.79 µM) | 4 to 8 µg/mL | >64 µg/mL | 32 µg/mL (≈ 30.3 µM) | 64 µg/mL (≈ 60.6 µM) | >64 µg/mL | >64 µg/mL | >64 µg/mL | >64 µg/mL | 64 µg/mL (≈ 60.6 µM) | > 64 µg/mL | >64 µg/mL | 64 µg/mL (≈ 60.6 µM) | >64 µg/mL | >64 µg/mL | >64 µg/mL | >64 µg/mL | >64 µg/mL | >64 µg/mL | >64 µg/mL | MIC S. pseudintermedius strain 26071 [7]: 4 µg/mL (≈ 3.79 µM); MIC S. pseudintermedius strain 26092-2 [7]: 4 µg/mL (≈ 3.79 µM); MIC S. pseudintermedius strain 26959 [7]: 4 µg/mL (≈ 3.79 µM); MIC S. pseudintermedius strain 27364 [7]: 2 µg/mL (≈ 1.89 µM); MIC S. pseudintermedius strain 27382 [7]: 2 µg/mL (≈ 1.89 µM); MIC S. pseudintermedius strain 31524 [7]: 32 µg/mL (≈ 30.3 µM); MIC S. pseudintermedius strain 33228 [7]: 2 µg/mL (≈ 1.89 µM); MIC S. pseudintermedius strain 35890 [7]: 4 µg/mL (≈ 3.79 µM); MIC S. pseudintermedius strain 37526-1 [7]: 4 µg/mL (≈ 3.79 µM); MIC S. pseudintermedius strain 37535-1 [7]: 16 µg/mL (≈ 15.1 µM); MIC S. pseudintermedius strain 38637 [7]: 8 µg/mL (≈ 7.57 µM)
CCCC[C@H](NC(=O)[C@H](CCCCN)NC(=O)[C@H](CCCCN)NC(=O)[C@@H](N)CCCCN)C(=O)N[C@@H](Cc1ccc2ccccc2c1)C(=O)N[C@@H](Cc1ccccc1)C(=O)N[C@@H](Cc1ccc2ccccc2c1)C(N)=O [Compound 23, Lys-Lys-Lys-Nle-(2-Nal)Ala-Phe-(2-Nal)Ala] (H-KKK[Nle][2Nal]F[2Nal]-NH2) | 4 µg/mL (≈ 3.79 µM) |  | 64 µg/mL (≈ 60.6 µM) | 8 µg/mL (≈ 7.57 µM) | >64 µg/mL | 64 µg/mL (≈ 60.6 µM) | >64 µg/mL | >64 µg/mL | 16 µg/mL (≈ 15.1 µM) | 32 µg/mL (≈ 30.3 µM) | > 64 µg/mL | 64 µg/mL (≈ 60.6 µM) | 32 to 64 µg/mL | 64 µg/mL (≈ 60.6 µM) | 64 µg/mL (≈ 60.6 µM) | 64 µg/mL (≈ 60.6 µM) | >64 µg/mL | 32 µg/mL (≈ 30.3 µM) | 64 µg/mL (≈ 60.6 µM) | 64 µg/mL (≈ 60.6 µM) | Minimum Inhibitory Concentration MRSP C22963 (MRSP C22963; 18 h): 2 to 4 µg/mL; MIC S. pseudintermedius strain 26071 [7]: 8 µg/mL (≈ 7.57 µM); MIC S. pseudintermedius strain 26092-2 [7]: 8 µg/mL (≈ 7.57 µM); MIC S. pseudintermedius strain 26959 [7]: 4 µg/mL (≈ 3.79 µM); MIC S. pseudintermedius strain 27364 [7]: 2 µg/mL (≈ 1.89 µM); MIC S. pseudintermedius strain 27382 [7]: 4 µg/mL (≈ 3.79 µM); MIC S. pseudintermedius strain 31524 [7]: 8 µg/mL (≈ 7.57 µM); MIC S. pseudintermedius strain 33228 [7]: 2 µg/mL (≈ 1.89 µM); MIC S. pseudintermedius strain 35890 [7]: 2 µg/mL (≈ 1.89 µM); MIC S. pseudintermedius strain 37526-1 [7]: 1 to 2 µg/mL; MIC S. pseudintermedius strain 37535-1 [7]: 16 µg/mL (≈ 15.1 µM); MIC S. pseudintermedius strain 38637 [7]: 16 µg/mL (≈ 15.1 µM)
